The subject of the experiment is L1210 leukemia ip in BDF1 mice, survival T/C. The experiment in a line: NCI In Vivo Anticancer Drug Screen. Data for tumor model L1210 Leukemia (intraperitoneal) in B6D2F1 (BDF1) mice. To be noted: endpoint: mean survival time, higher = longer survival. The essentials:
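Survival endpoint. Drug-treated group vs vehicle group, expressed as T divided by C. Tumor passaged by transplantation.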

Where [1] appears, read: dose: 100.0 mg/kg/injection, schedule: Q04DX003 (ip), vehicle: saline.
Setting [2] is: dose: 200.0 mg/kg/injection, schedule: Q04DX003 (ip), vehicle: saline.
[3] abbreviates: dose: 400.0 mg/kg/injection, schedule: Q04DX003 (ip), vehicle: saline.
Where [4] appears, read: dose: 100.0 mg/kg/injection, schedule: Q01DX001 (ip), vehicle: saline.
Where [5] appears, read: dose: 200.0 mg/kg/injection, schedule: Q01DX001 (ip), vehicle: saline.
[6] abbreviates: dose: 100.0 mg/kg/injection, schedule: Q01DX009 (ip), vehicle: Klucel (hydroxypropylcellulose) (HPC).
The mark [7] stands for this setting: dose: 200.0 mg/kg/injection, schedule: Q01DX009 (ip), vehicle: Klucel (hydroxypropylcellulose) (HPC).
The mark [8] stands for this setting: dose: 400.0 mg/kg/injection, schedule: Q01DX009 (ip), vehicle: Klucel (hydroxypropylcellulose) (HPC).
[9] abbreviates: dose: 100.0 mg/kg/injection, schedule: Q04DX003 (ip), vehicle: saline with Tween-80.
Setting [10] is: dose: 200.0 mg/kg/injection, schedule: Q04DX003 (ip), vehicle: saline with Tween-80.
The mark [11] stands for this setting: dose: 400.0 mg/kg/injection, schedule: Q04DX003 (ip), vehicle: saline with Tween-80.

“And” between values parts separate entries of the source, which are not always exact repeats. Identical values can stand only once. Toxic doses and inconclusive results are not listed.

For the compound `CN(C)CCC(CNC1=NCCN1)c1cccc2ccccc12` (centres undefined), the T/C was 108 % of control (dose: 25.0 mg/kg/injection, schedule: Q04DX002 (ip), vehicle: saline with Tween-80); 101 % of control (dose: 50.0 mg/kg/injection, schedule: Q04DX002 (ip), vehicle: saline with Tween-80); 101 % of control (dose: 100.0 mg/kg/injection, schedule: Q04DX002 (ip), vehicle: saline with Tween-80).
Take `CC(CNc1ccc(Cl)cc1)(CNc1ccc(Cl)cc1)[N+](=O)[O-]`: the T/C runs as follows: under setting [1], 92 % of control; under setting [2], 88 % of control; under setting [3], 92 % of control.
Take `N#Cc1ccc([N+](=O)[O-])cc1O`: the T/C (dose: 50.0 mg/kg/injection, schedule: Q04DX003 (ip), vehicle: saline) was 96 % of control; the T/C under setting [4] was 98 % of control; the T/C under setting [1] was 95 % of control; the T/C under setting [5] was 104 % of control; the T/C under setting [2] is 96 % of control.
Consider `COC(=O)c1ccc(OC(=O)Nc2ccc(F)c([N+](=O)[O-])c2)cc1`, for which the T/C runs as follows: under setting [6], 101 % of control; under setting [7], 104 % of control.
For the compound `CN(N=O)C(=O)NC1C(O)C(CO)OC1n1ccc(=O)[nH]c1=O` (centres undefined), the T/C runs as follows: under setting [1], 98 % of control; under setting [2], 96 % of control; under setting [3], 102 % of control.
With `NC(=O)N/N=C(/CCC(=O)O)C(=O)O`, the T/C was 98 % of control (dose: 100.0 mg/kg/injection, schedule: Q01DX001 (ip), vehicle: acetone); 92 % of control (dose: 100.0 mg/kg/injection, schedule: Q01DX009 (ip), vehicle: acetone); 89 % of control under setting [1]; 103 % of control (dose: 200.0 mg/kg/injection, schedule: Q01DX001 (ip), vehicle: acetone); 100 % of control (dose: 200.0 mg/kg/injection, schedule: Q01DX009 (ip), vehicle: acetone); 93 % of control and 87 % of control under setting [2]. Further, the T/C is 95 % of control (dose: 400.0 mg/kg/injection, schedule: Q01DX001 (ip), vehicle: acetone); 94 % of control (dose: 400.0 mg/kg/injection, schedule: Q01DX009 (ip), vehicle: acetone); 91 % of control under setting [3].
On to `C=CC(C)(O)CCC1C(=C)CCC2C(C)(C)CCCC12C` (centres undefined), for which the T/C is, setting by setting: under setting [6], 100 % of control; under setting [7], 100 % of control; under setting [8], 95 % of control.
For `CC1(C)N=C(N)N=C(N)N1c1ccc(C#N)cc1`, the T/C under setting [4] is 100 % of control.
Take `FC(F)(F)c1cccc(NC(=S)NC(Cc2ccccc2)c2ccccc2)c1` (centres undefined): the T/C reads like this: (dose: 100.0 mg/kg/injection, schedule: Q04DX002 (ip), vehicle: gum acacia) 104 % of control; (dose: 200.0 mg/kg/injection, schedule: Q04DX002 (ip), vehicle: gum acacia) 98 % of control; (dose: 400.0 mg/kg/injection, schedule: Q04DX002 (ip), vehicle: gum acacia) 92 % of control.
Consider `CC(=O)Nc1cccc2cccnc12`, for which the T/C reads like this: (dose: 12.5 mg/kg/injection, schedule: Q01DX009 (ip), vehicle: saline with Tween-80) 92 % of control; (dose: 25.0 mg/kg/injection, schedule: Q01DX009 (ip), vehicle: saline with Tween-80) 95 % of control; (dose: 50.0 mg/kg/injection, schedule: Q01DX009 (ip), vehicle: saline with Tween-80) 90 % of control; (dose: 75.0 mg/kg/injection, schedule: Q01DX001 (ip), vehicle: other) 104 % of control; (dose: 75.0 mg/kg/injection, schedule: Q01DX009 (ip), vehicle: other) 98 % of control; (dose: 75.0 mg/kg/injection, schedule: Q01DX009 (ip), vehicle: saline with Tween-80) 87 % of control. In addition, the T/C was 90 % of control under setting [6]; 93 % of control (dose: 100.0 mg/kg/injection, schedule: Q01DX009 (ip), vehicle: saline); 107 % of control under setting [9]; 108 % of control under setting [1]; 103 % of control (dose: 150.0 mg/kg/injection, schedule: Q01DX001 (ip), vehicle: other); 93 % of control under setting [7]. For the same compound, the T/C by setting is: (dose: 200.0 mg/kg/injection, schedule: Q01DX009 (ip), vehicle: saline) 95 % of control; under setting [2], 106 % of control; (dose: 300.0 mg/kg/injection, schedule: Q01DX001 (ip), vehicle: other) 94 % of control; under setting [3], 89 % of control.
Consider `NC(N)=N/N=C(/c1ccccc1)c1ccc2ccccc2c1`, for which the T/C reads like this: (dose: 60.0 mg/kg/injection, schedule: Q01DX Z (oral), vehicle: methylcellulose (MC)) 95 % of control; (dose: 120.0 mg/kg/injection, schedule: Q01DX Z (oral), vehicle: methylcellulose (MC)) 108 % of control; (dose: 240.0 mg/kg/injection, schedule: Q01DX Z (oral), vehicle: methylcellulose (MC)) 111 % of control; (dose: 480.0 mg/kg/injection, schedule: Q01DX Z (oral), vehicle: methylcellulose (MC)) 101 % of control; (dose: 720.0 mg/kg/injection, schedule: Q01DX Z (oral), vehicle: methylcellulose (MC)) 98 % of control; (dose: 840.0 mg/kg/injection, schedule: Q01DX Z (oral), vehicle: methylcellulose (MC)) 112 % of control.
For `N=C(N)c1ccc(OCCCCCCOc2ccc(C(=N)N)cc2I)cc1`, the T/C (dose: 6.25 mg/kg/injection, schedule: Q01DX Z (oral), vehicle: saline) is 103 % of control; the T/C (dose: 12.5 mg/kg/injection, schedule: Q01DX Z (oral), vehicle: saline) is 103 % of control; the T/C (dose: 25.0 mg/kg/injection, schedule: Q01DX Z (oral), vehicle: saline) was 97 % of control; the T/C (dose: 50.0 mg/kg/injection, schedule: Q01DX Z (oral), vehicle: saline) was 101 % of control; the T/C (dose: 100.0 mg/kg/injection, schedule: Q01DX Z (oral), vehicle: saline) is 100 % of control; the T/C (dose: 200.0 mg/kg/injection, schedule: Q01DX Z (oral), vehicle: saline) is 100 % of control.
For `O=C(N/N=C/c1ccc(Cl)cc1)c1ccc(Cl)cc1`, the T/C was 105 % of control under setting [9], 98 % of control under setting [10] and 91 % of control under setting [11].
Consider `CC(C)C1(C(=O)N2CCCCC2=O)SCCCS1`, for which the T/C is 94 % of control under setting [9], 90 % of control under setting [10] and 92 % of control under setting [11].
`Cc1cc(=O)c2c(C)ccc(C)c2[nH]1`: the T/C runs as follows: (dose: 100.0 mg/kg/injection, schedule: Q01DX001 (ip), vehicle: other) 95 % of control; (dose: 200.0 mg/kg/injection, schedule: Q01DX001 (ip), vehicle: other) 91 % of control; (dose: 400.0 mg/kg/injection, schedule: Q01DX001 (ip), vehicle: other) 98 % of control.
Regarding `C=CCc1ccc(OC(=O)Nc2ccc(S(=O)(=O)NC3CCCCC3)cc2)c(OC)c1`, the T/C reads like this: under setting [4], 91 % of control; under setting [5], 94 % of control; (dose: 400.0 mg/kg/injection, schedule: Q01DX001 (ip), vehicle: saline) 96 % of control.
Take `CNC(=O)NCCCCCCCCCCC(=O)O`: the T/C under setting [6] is 104 % of control, the T/C under setting [7] is 91 % of control and the T/C under setting [8] is 106 % of control.
In the case of `O=C(Nc1ccccc1Cl)Oc1ccc(C2CCCCC2)cc1`, the T/C reads like this: (dose: 100.0 mg/kg/injection, schedule: Q04DX002 (ip), vehicle: Klucel (hydroxypropylcellulose) (HPC)) 103 % of control; (dose: 200.0 mg/kg/injection, schedule: Q04DX002 (ip), vehicle: Klucel (hydroxypropylcellulose) (HPC)) 98 % of control; (dose: 400.0 mg/kg/injection, schedule: Q04DX002 (ip), vehicle: Klucel (hydroxypropylcellulose) (HPC)) 98 % of control.
For the compound `NC(CCCC(N)C(=O)CCl)C(=O)O` (centres undefined), the T/C (dose: 25.0 mg/kg/injection, schedule: Q04DX002 (ip), vehicle: saline) is 114 % of control; the T/C (dose: 50.0 mg/kg/injection, schedule: Q04DX002 (ip), vehicle: saline) was 104 % of control; the T/C (dose: 100.0 mg/kg/injection, schedule: Q04DX002 (ip), vehicle: saline) was 107 % of control.
For `CS(=O)(=O)OCCN(CCOS(C)(=O)=O)c1ccc(C=Nc2ccc(C(=O)O)cc2)cc1`, the T/C was 114 % of control (dose: 2.5 mg/kg/injection, schedule: Q04DX003 (ip), vehicle: Klucel (hydroxypropylcellulose) (HPC)); 170 % of control (dose: 20.0 mg/kg/injection, schedule: Q04DX003 (ip), vehicle: Klucel (hydroxypropylcellulose) (HPC)); 112 % of control (dose: 40.0 mg/kg/injection, schedule: Q04DX003 (ip), vehicle: Klucel (hydroxypropylcellulose) (HPC)).

The record behind these values is PubChem BioAssay AID248 (DTP/NCI, 2004).
